Read-outs that look alike come from different tables or passages of the source.
Columns and labels:
[1] = tested on: ectoparasites such as fleas; settings: companion animals; cited from earlier work
Ctenocephalides felis [2] = tested on: Ctenocephalides felis
Description: (§1) Thirty-eight adult females were allocated randomly to one of two treatments: placebo (negative control, 19 animals), or selamectin (19 animals). The selamectin, was formulated as: […]
(§2) Doses providing 6 mg/kg of selamectin were administered topically in a single spot on the skin of each female's back at the base of the neck in front of the shoulder blades on days 0 and 30 to individually-housed females and to females group-housed for mating on days 0, 30, 60 and 90 as required until kittening. All females were treated on post partum days 10 and 38. Treatments were not administered to kittens. […]. Study day 0 was defined individually for each adult female as the day on which the first treatment with either placebo or selamectin was administered and post partum day 1 was defined as the day following the day of delivery of the last kitten in the litter.

[3] = 6 mg/kg topical at monthly intervals during pregnancy and post-partum, female dogs
Toxocara canis [4] = settings: 6 mg/kg topical to dam
Description: (§3) Twenty-one adult females were allocated randomly to one of two treatments: placebo (negative control, 11 animals), or selamectin (10 animals). The selamectin, was formulated as: […]
(§4) Doses providing 6 mg/kg of selamectin were administered topically approximately 40 days and 10 days pre-partum and 10 days and 38 days post-partum in a single spot on the skin of each female's back at the base of the neck in front of the shoulder blades. Treatments were not administered to puppies. Post-partum day 1 was defined individually for each adult female as the day following the day of delivery of the last puppy in the litter.
(§5) Following observations of signs of pro-oestrus, the females were moved into randomly allocated carpeted pens in a building where the environment was suitable for the rapid completion of the flea reproductive cycle.
On post-partum day 45, each puppy was euthanised, its gastro-intestinal tract was removed and intestinal larval (L4) and adult T. canis were enumerated.

Toxocara cati = settings: post partum day 49
Description: as §1, §2
Each adult female was inoculated once with approximately 1000 embryonated T. cati ova, per os, between 150 and 31 days prior to commencing the study and again between 5 and 21 days before kittening.
On post partum day 49, each kitten was euthanased, its gastrointestinal tract was removed and intestinal larvae (L4) and adult T. cati were enumerated.

[5] = 6 mg/kg topical at monthly intervals during pregnancy and post partum, female cats
Ctenocephalides felis [6] = tested on: Ctenocephalides felis; remark: listed apart in the source
Description: as §3, §4, §5
(§6) Each adult female was infested with 100 viable unfed adult C. felis approximately 60 days and 46 days pre-partum, and with 10 viable unfed adult fleas approximately 39, 33, 26, 19, 14 and 5 days pre-partum; an additional infestation was performed 7 days later if the female had not whelped. Each lactating female was also infested with 10 fleas on post-partum days 6, 15, 21, 28, 34 and 42. Comb counts of the number of viable adult fleas present on each female were made on approximately pre-partum days 41 and 11, and on postpartum days 9, 37 and 45. Comb counts of the fleas present on each puppy were performed on post-partum days 15, 24, 34, 42 and 45. After counting, up to 50 fleas per pregnant/lactating female and up to five fleas per puppy were replaced on each dog. For welfare reasons, if any dog was scratching or grooming excessively, additional unscheduled comb counts were performed on that dog and if necessary, the carpet was partially or entirely replaced to reduce the environmental flea challenge. Faecal egg counts for T. canis were performed for pregnant/lactating females on approximately pre-partum day 2 and on post-partum days 9, 17, 24 and 45, and for puppies on post-partum days 24 and 34.

Toxocara canis [7] = settings: 6 mg/kg topical to dam; for geometric mean faecal egg count: puppies born to treated females
Description: as §3, §4, §5, §6

intestinal nematode = settings: administered to pregnant bitch from pregnancy past parturition; Veterinary Parasitology, 1999, 85, 305; cited from earlier work
[8] = kittens at necropsy, 6 mg/kg topical to dam

Compound | activity against ectoparasites such as fleas [1] | females or their kittens requiring additional flea control measures (Ctenocephalides felis [2]; after the first treatment on day 0, to maintain flea burdens within acceptable limits) | reduction in mean flea comb counts compared with kittens born to placebo-treated females (Ctenocephalides felis [2]; kittens, all counting days (post partum days 15, 24, 34, 42 and 49)) [%] | geometric mean flea comb count (Ctenocephalides felis [2]; kittens, all counting days (post partum days 15, 24, 34, 42 and 49), 6 mg/kg topical to dam) | safety of treatment [3] | reduction in mean adult T. canis count compared with puppies born to placebo-treated females (Toxocara canis [4]; necropsy post partum day 45) [%] | geometric mean adult T. canis worm count (Toxocara canis [4]; puppies at necropsy, post-partum day 45) | geometric mean L4 T. cati count (Toxocara cati; [8]) | geometric mean adult T. cati count (Toxocara cati; [8]) | reduction in mean adult T. cati count compared with kittens born to placebo-treated females (Toxocara cati) [%] | reduction in mean fourth stage larvae (L4) T. cati count compared with kittens born to placebo-treated females (Toxocara cati) [%] | safety of treatment [5] | reduction in mean flea comb counts compared with puppies born to placebo-treated females (Ctenocephalides felis [6]; puppies, all counting days (post-partum days 15, 24, 34, 42 and 45)) [%] | geometric mean flea comb count (Ctenocephalides felis [6]; puppies, all counting days (post-partum days 15, 24, 34, 42 and 45), 6 mg/kg topical to dam) | females or their puppies requiring additional flea control measures (Ctenocephalides felis [6]; to maintain flea burdens within acceptable limits) | reduction in mean faecal egg count compared with puppies born to placebo-treated females (Toxocara canis [7]; post-partum day 24) [%] | reduction in mean faecal egg count compared with puppies born to placebo-treated females (Toxocara canis [7]; post-partum day 34) [%] | geometric mean faecal egg count (Toxocara canis [7]; post-partum day 24) [epg] | geometric mean faecal egg count (Toxocara canis [7]; post-partum day 34) [epg] | prevention of intestinal nematode infections in pups (intestinal nematode)
CO[C@H]1C[C@H](O[C@H]2[C@H](C)O[C@@H](O[C@@H]3/C(C)=C/C[C@@H]4C[C@@H](C[C@]5(C=C[C@H](C)[C@@H](C6CCCCC6)O5)O4)OC(=O)[C@@H]4C=C(C)[C@@H](O)[C@H]5OC/C(=C\C=C\[C@@H]3C)[C@]54O)C[C@@H]2OC)O[C@@H](C)[C@@H]1O [doramectin] | poor activity | – | – | – | – | – | – | – | – | – | – | – | – | – | – | – | – | – | – | –
CO[C@H]1C[C@H](O[C@@H]2/C(C)=C/C[C@@H]3C[C@@H](C[C@]4(CC[C@H](C)[C@@H](C5CCCCC5)O4)O3)OC(=O)[C@@H]3C=C(C)/C(=N/O)[C@H]4OC/C(=C\C=C\[C@@H]2C)[C@]43O)O[C@@H](C)[C@@H]1O [selamectin] | – | none | 100 | zero | safe | 98.2 | 0.1 | 0.0 | 0.0 | 100 | 100 | safe | 100.0 | 0 | None | 96.8 | 96.1 | 0.8 | 2.1 | –
ivermectin | poor activity | – | – | – | – | – | – | – | – | – | – | – | – | – | – | – | – | – | – | can prevent intestinal nematode infections in pups

From patent US20040097435A1, “Method of treating parasitic infection” (Pfizer Inc, priority 2000, published 2004)
